The source of these data is ChEMBL document CHEMBL1149280, “Highly selective fluorescent analogue of the potent delta-opioid receptor antagonist Dmt-Tic” (J Med Chem, 2004).

Usually IC50 stands for the concentration at which inhibition is half-maximal. As a reminder, the Ki is the dissociation constant of the complex between target and ligand, obtained from inhibition or displacement. The low end stands for tighter binding, the high end for weaker binding.

In test [1] the target is Mu-type opioid receptor (Cavia porcellus, UniProt P97266). As to the kind of experiment: Agonistic activity at mu opioid receptor in guinea pig ileum assessed as inhibition of electrically evoked twitch. In kind it is functional, tissue-based.
Sequence of Mu-type opioid receptor (Cavia porcellus, UniProt P97266) (P97266 whole entry): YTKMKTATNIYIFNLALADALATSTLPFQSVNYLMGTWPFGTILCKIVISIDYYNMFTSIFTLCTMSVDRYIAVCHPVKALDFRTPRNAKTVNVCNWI
Test [2] has as its target Opioid receptors; mu & delta (Rattus norvegicus) (UniProt P33533+P33535). The experiment in a line: Selectivity of rat brain delta opioid receptor over rat brain mu opioid receptor.
Test [3] concerns the target Delta-type opioid receptor (Mus musculus) (UniProt P32300). As to the kind of experiment: Antagonist activity at delta opioid receptor in mouse vas deferens assessed as effect on electrically evoked twitch. Particulars: filed as antagonist; call rule not given here. In kind it is functional, tissue-based.
Test [4] deals with Delta-type opioid receptor (Mus musculus, UniProt P32300). As to the kind of experiment: Agonistic activity at delta opioid receptor in mouse vas deferens assessed as inhibition of electrically evoked twitch. The class given is functional, tissue-based.
Sequence of Delta-type opioid receptor (Mus musculus, UniProt P32300) (P32300 whole entry): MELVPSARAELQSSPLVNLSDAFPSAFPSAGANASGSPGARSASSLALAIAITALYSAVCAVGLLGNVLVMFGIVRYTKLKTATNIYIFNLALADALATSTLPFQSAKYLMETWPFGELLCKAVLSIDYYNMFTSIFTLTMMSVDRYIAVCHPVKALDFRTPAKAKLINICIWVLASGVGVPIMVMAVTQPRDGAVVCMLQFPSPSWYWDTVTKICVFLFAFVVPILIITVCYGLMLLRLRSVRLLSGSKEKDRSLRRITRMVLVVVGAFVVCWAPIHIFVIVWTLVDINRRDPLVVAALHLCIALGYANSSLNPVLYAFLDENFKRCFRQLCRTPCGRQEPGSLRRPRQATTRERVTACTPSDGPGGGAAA
Test [5] concerns the target Delta-type opioid receptor (Rattus norvegicus, UniProt P33533). As to the kind of experiment: Displacement of [3H]DPDPE from delta opioid receptor in rat brain synaptosomes P2 fraction. In kind it is subcellular. For orientation: In a radioligand displacement assay an active substance lowers the binding of a labelled ligand.
The target in test [6] is Mu-type opioid receptor (Rattus norvegicus, UniProt P33535). The experiment in a line: Displacement of [3H]DAMGO from mu opioid receptor in rat brain synaptosomes P2 fraction. The class given is subcellular.
Sequence of Mu-type opioid receptor (Rattus norvegicus, UniProt P33535) (P33535 whole entry): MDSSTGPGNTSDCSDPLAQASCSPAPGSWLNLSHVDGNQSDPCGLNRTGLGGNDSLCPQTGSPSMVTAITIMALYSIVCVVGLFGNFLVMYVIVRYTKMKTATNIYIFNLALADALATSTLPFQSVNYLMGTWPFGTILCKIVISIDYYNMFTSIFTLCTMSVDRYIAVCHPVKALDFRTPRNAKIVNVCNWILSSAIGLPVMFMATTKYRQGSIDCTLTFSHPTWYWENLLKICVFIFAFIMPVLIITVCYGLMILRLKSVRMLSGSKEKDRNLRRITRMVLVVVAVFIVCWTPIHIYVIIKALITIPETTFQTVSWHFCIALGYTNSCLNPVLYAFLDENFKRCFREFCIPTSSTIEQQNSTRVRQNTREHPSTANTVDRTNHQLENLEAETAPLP

Where a SMILES comes first, the peptide text is derived from it.

Sequence of Opioid receptors; mu & delta (Rattus norvegicus) (P33533 whole entry, looked up): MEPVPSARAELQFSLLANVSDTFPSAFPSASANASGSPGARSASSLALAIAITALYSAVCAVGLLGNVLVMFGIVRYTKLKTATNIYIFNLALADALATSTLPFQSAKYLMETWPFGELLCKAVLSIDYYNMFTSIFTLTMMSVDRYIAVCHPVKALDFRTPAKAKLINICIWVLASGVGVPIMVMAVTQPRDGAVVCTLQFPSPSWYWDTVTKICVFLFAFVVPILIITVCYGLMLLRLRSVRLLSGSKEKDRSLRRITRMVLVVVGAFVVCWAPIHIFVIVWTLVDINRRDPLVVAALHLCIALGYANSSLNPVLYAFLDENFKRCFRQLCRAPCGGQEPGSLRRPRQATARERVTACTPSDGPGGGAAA
Sequence of Opioid receptors; mu & delta (Rattus norvegicus) (P33535 whole entry, looked up): as the sequence (P33535 whole entry) above
Sequence of Delta-type opioid receptor (Mus musculus) (P32300 whole entry): as the sequence (P32300 whole entry) above
Sequence of Delta-type opioid receptor (Rattus norvegicus, UniProt P33533) (P33533 whole entry): as the sequence (P33533 whole entry, looked up) above

As to `Cc1cc(O)cc(C)c1C[C@H](N)C(=O)N1Cc2ccccc2C[C@H]1C(=O)N[C@@H](CCC(=O)O)C(=O)NCCCCCN`, the IC50 on Mu-type opioid receptor [1] was above 1000 nM.
On the same count and under the same terms, as for `Cc1cc(O)cc(C)c1C[C@H](N)C(=O)N1Cc2ccccc2C[C@H]1C(=O)N[C@@H](CCC(=O)O)C(=O)NCCCCCNC(=S)Nc1ccc(-c2c3ccc(=O)cc-3oc3cc(O)ccc23)c(C(=O)O)c1`, the figure is above 1000 nM.
With `Cc1cc(O)cc(C)c1C[C@H](N)C(=O)N1Cc2ccccc2CC1C(=O)N[C@@H](CCC(=O)O)C(=O)NCCCCCN` (stereo not given in full), in test [2], the Ratio Ki is 1700.
For `Cc1cc(O)cc(C)c1C[C@H](N)C(=O)N1Cc2ccccc2CC1C(=O)N[C@@H](CCC(=O)O)C(=O)NCCCCCNC(=S)Nc1ccc(-c2c3ccc(=O)cc-3oc3cc(O)ccc23)c(C(=O)O)c1` (stereo not given in full), the Ratio Ki in test [2] came out at 4370. Besides, the Activity entry in test [3] is given as “Irreversible Antagonist”.
In the case of `Cc1cc(O)cc(C)c1C[C@H](N)C(=O)N1Cc2ccccc2C[C@H]1C(=O)N[C@@H](CCC(=O)O)C(N)=O` (HELM PEPTIDE1{[Cc1cc(O)cc(C)c1C[C@H](N)C(=O)[*:2]].[Tic].E.[am]}$$$$V2.0), the IC50 was 2.58 nM (agonist) in test [4] and above 1000 nM at Mu-type opioid receptor [1]. For the same compound, the Ki was 0.06 nM (antagonist) in test [5] and 1360 nM (antagonist) at Mu-type opioid receptor [6]. Besides, the Ratio Ki in test [2] worked out at 22600.
